Measured values taken from US8481587B2, “Substituted 2-(5-hydroxy-2-methyl-1H-indole-3-yl)acetic acids and ethers thereof and the use of same to treat viral diseases” (priority 2008, dated 2013).
In brackets after ≈: the same amount, converted by molar mass. Counter-ions that a name gives are not always drawn. Like-named read-outs stand apart in the source and are kept apart here.

Key:
[1] = system: influenza A/New Caledonia/20/99 (H1N1) viruses; test: microbe, parasite or virus in culture; type: cell-based
[2] = system: hepatisis C viruses (HCV) strain JFH-1; test: Antiviral activity towards HCV in infected Huh7 cells (core-antigen ELISA); type: cell-based, HCV strain JFH-1 in human hepatoma (Huh7) cells; settings: Hepatitis C virus, Huh-7; HCV strain JFH-1, Huh7 cells
Experimental: Determination of antiviral activity of the compounds of the general formula 1 towards hepatisis C viruses. Determination of antiviral activity of the compounds of the general formula 1 towards hepatisis C viruses (HCV) strain JFH-1 in cell culture of human hepatoma (Huh7) infected with HCV.
Cells Huh7 were embedded in 96-well plates (7.5×10^3 cells in every well in 50 μl of nutrient solution). 5×-concentrated solutions of the tested compounds in DMEM medium {DMEM) 1×; the source: Cellgro; Catalogue: 10-013-CV} were prepared just before the usage. In total, four serial fivefold dilutions with concentration ranging from 250 μM to 2 μM were prepared. In 4 hours after cell embedding serial dilutions of the compounds were added to the cells (50 mkl per one well). Each dilution of the examined compound was tested for two identical wells. The final DMSO concentration amounted up to 0.5%. Then, the cells were incubated for 3 hours at 37° C./5% CO2. After the incubation virus (300 tissue culture infective doses in 30 μl per one well) was added to the cells. […]. Then the cells were incubated for 3 hours at 37° C./5% CO2. The cells were fixed by addition acetone/methanol (1:1) mixture in amount of 250 gμl/well. In one minute the cells were washed with Phosphate Buffered Saline (PBS) three times. After that the cells were quenched by addition of 10% solution of fetal calf serum in PBS (150 μl/well) and kept for one hour at room temperature. Then the cells were incubated with mouse monoclonal antibody (100 μl/well) to cor-antigen HCV, clone C7-50 (Source: Affinity BioReagents; Catalogue: MA1-080) (working dilution—1:500 in 10% solution of fetal calf serum in PBS) for two hours at 37° C. The cells were washed 6 times with PBS/0.05% Tween 20 solution and incubated for one hour with peroxidase conjugated goat anti-mouse immunoglobulin (100 μl/well) (working dilution—1:2500 in 10% solution of fetal calf serum in PBS). The cells were washed 6 times with PBS/0.05% Tween 20 solution, then with PBS solution, and 100 μl/well of the substrate (consisting of 1 tablet of oPD, 12 ml of citrate/phosphate buffer and 5 μl of 30% H2O2) were added. The plates were kept for 30 min in darkness at room temperature. The reaction was stopped by addition of 2N […] (100 μl/well), optical density (at 490 nm) was measured with the help of multichannel spectrophotometer Victor3 V 1420 (Perkin Elmer). IC50 values for every tested compound were calculated using XLfit 4 programm.

cellular line MDCK = settings: cited from earlier work
influenza virus = settings: cellular line MDCK, cited from earlier work
[3] = system: some other cellular lines; settings: cited from earlier work
[4] = influenza A/New Caledonia/20/99 (H1N1), MDCK cells, ELISA, read-out: IC50

| Compound | IC50 [1, 4] [µg/mL] | IC50 [2] [µM] | further results |
| --- | --- | --- | --- |
| COC(=O)Cc1c(C)n(C)c2cc(F)c(OC)cc12 [1g(2), methyl 2-(1,2-dimethyl-5-methoxy-6-fluoro-1H-indol-3-yl)acetate] | 10 (≈ 37.7 µM) | 6.3 | – |
| COC(=O)Cc1c(C)n(C)c2cc(C(F)(F)F)c(OC)cc12 [1g(4), methyl 2-(1,2-dimethyl-5-methoxy-6-(trifluoromethyl)-1H-indol-3-yl)acetate] | – | 2.4 | – |
| COC(=O)Cc1c(C)n(C)c2cc(F)c(O)cc12 [1v(1), methyl 2-(5-hydroxy-1,2-dimethyl-6-fluoro-1H-indol-3-yl)acetate] | – | 50 | – |
| Cc1c(CC(=O)O)c2cc(O)c(F)cc2n1C [1u(6), 2-(5-hydroxy-1,2-dimethyl-6-fluoro-1H-indol-3-yl)acetic acid] | > 15 | – | – |
| CN(C)Cc1c(CC(=O)O)c2cc(O)c(-c3cccnc3)cc2n1C [1t(5), 2-(5-hydroxy-2-(dimethylamino)methyl-1-methyl-6-(pyridin-3-yl)-1H-indol-3-yl)acetic acid] | > 15 | – | – |
| COC(=O)Cc1c(C)n(C(=O)c2ccc(Cl)cc2)c2ccc(OC)c(F)c12 [1e(1), methyl 2-[2-methyl-5-methoxy-4-fluoro-1-(4-chlorobenzoyl)-1H-indol-3-yl]acetate] | – | 39 | – |
| COC(=O)Cc1c(C)[nH]c2cc(C(F)(F)F)c(OC)cc12 [1.4(1), methyl 2-(2-methyl-5-methoxy-6-(trifluoromethyl)-1H-indol-3-yl)acetate] | > 15 | 1.7 | – |
| COc1ccc2c(c1F)c(CC(=O)O)c(CN(C)C)n2C [1i(13), 2-(2-(dimethylamino)methyl-1-methyl-5-methoxy-4-fluoro-1H-indol-3-yl)acetic acid] | 12 (≈ 40.8 µM) | – | – |
| CCOC(=O)c1c(CSc2ccccc2)n(C)c2cc(Br)c(O)c(CN(C)C)c12.Cl [Arbidol, ethyl 6-bromo-4-[(dimethylamino)methyl]-5-hydroxy-1-methyl-2-(phenylthiomethyl)-1H-indole-3-carboxylate hydrochloride] | – | – | TC50 (cellular line MDCK): 62.5 µg/mL; selectivity index (SI50) (influenza virus; for influenza virus): 2.69; IC50 (influenza virus; influenza virus): 23.2 mkg/ml; CC50 [3]: 15 to 25 µg/mL |
| COC(=O)Cc1c(C)[nH]c2ccc(OC)c(F)c12 [1.1(1), methyl 2-(2-methyl-5-methoxy-4-fluoro-1H-indol-3-yl)acetate] | – | 38 | – |
| COC(=O)C(CCN(C)C)c1c(C)n(C)c2cc(C(F)(F)F)c(OC)cc12 (centres unmarked) [1p(2)•HCl, methyl 2-(1,2-dimethyl-5-methoxy-6-(trifluoromethyl)-1H-indol-3-yl)-4-dimethylaminobutyrate] | – | – | IC50 ([1]; H1N1, MDCK): 12 µg/mL |
| COC(=O)Cc1c(C)[nH]c2cc(F)c(OC)cc12 [1.2(1), methyl 2-(2-methyl-5-methoxy-6-fluoro-1H-indol-3-yl)acetate] | – | 13 | – |
